Patent US11384055B2 (BIOMARIN PHARMACEUTICAL INC., priority 2017, dated 2022)

Each compound was assayed against T1, Human GO (Homo sapiens, UniProt Q9UJM8) (assay: GO enzymatic assay (coupled fluorescence/HRP assay, glycolate substrate)). Details: Table 1; read-out: Range (range of IC50 values calculated from the enzymatic assays).
T1 construct: purchased Novus Biologicals NBP1-72412
T1 sequence (Q9UJM8 1-370): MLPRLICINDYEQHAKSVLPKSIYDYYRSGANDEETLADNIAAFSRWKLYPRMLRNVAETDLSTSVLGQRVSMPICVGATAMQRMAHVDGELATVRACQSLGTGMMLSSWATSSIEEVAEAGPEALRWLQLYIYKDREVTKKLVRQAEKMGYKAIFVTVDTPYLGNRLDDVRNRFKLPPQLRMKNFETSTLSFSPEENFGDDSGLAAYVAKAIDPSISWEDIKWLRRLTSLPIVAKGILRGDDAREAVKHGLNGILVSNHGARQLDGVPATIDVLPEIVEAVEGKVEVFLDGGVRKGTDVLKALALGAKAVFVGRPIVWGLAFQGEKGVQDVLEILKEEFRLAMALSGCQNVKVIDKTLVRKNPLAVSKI
Format: biochemical
Method: Assay 1: GO Enzymatic Assay
GO was incubated with its substrate, glycolate, in 50 mM potassium phosphate buffer, pH 7. […] The enzyme was optimized and the kinetics was determined.
Compound inhibition was determined by adding various concentrations of inhibitors in the GO enzyme assay. The IC50 value for each measured compound was generated from sigmoidal dose-response (variable slope) curves with GraphPad Prism software (GraphPad Software, Inc., San Diego, Calif.) using the percent inhibition of GO activity relative to DMSO control.

Compared with O=C(O)c1[nH]nnc1Sc1nc(-c2ccc(Cl)c(Cl)c2)cs1 [Compound 2, 4-((4-(3,4-dichlorophenyl)thiazol-2-yl)thio)-1H-1,2,3-triazole-5-carboxylic acid], COC(=O)c1[nH]nnc1Sc1nc(-c2ccc(Cl)c(Cl)c2)cs1 [Compound 17, methyl 4-((4-(3,4-dichlorophenyl)thiazol-2-yl)thio)-1H-1,2,3-triazole-5-carboxylate] is higher in IC50: less than 100 nM for the first, greater than 10000 nM for the second.

O=C(O)c1[nH]nnc1Sc1ncc(-c2ccc(Cl)c(Cl)c2)s1 [Compound 3, 4-((5-(3,4-dichlorophenyl)thiazol-2-yl)thio)-1H-1,2,3-triazole-5-carboxylic acid] and O=C(O)c1[nH]nnc1Sc1csc(-c2ccc(Cl)c(Cl)c2)n1 [Compound 8, 4-((2-(3,4-dichlorophenyl)thiazol-4-yl)thio)-1H-1,2,3-triazole-5-carboxylic acid] cannot be ordered by IC50: less than 100 nM for the first, less than 100 nM for the second.

O=C(O)c1[nH]nnc1Sc1ccc(-c2ccc(Cl)cc2)cc1 [Compound 5, 4-((4′-chloro-[1,1′-biphenyl]-4-yl)thio)-1H-1,2,3-triazole-5-carboxylic acid] and COc1ccc(-c2ccc(Sc3nn[nH]c3C(=O)O)cc2)cc1 [Compound 14, 4-((4′-methoxy-[1,1′-biphenyl]-4-yl)thio)-1H-1,2,3-triazole-5-carboxylic acid] cannot be ordered by IC50: less than 100 nM for the first, less than 100 nM for the second.

Compared with CN1CCN(c2cccc(Sc3[nH]nnc3C(=O)O)c2)CC1 [Compound 6, 5-((3-(4-methylpiperazin-1-yl)phenyl)thio)-1H-1,2,3-triazole-4-carboxylic acid 2,2,2-trifluoroacetate], CN1CCN(c2ccc(Sc3nn[nH]c3C(=O)O)cc2)CC1 [Compound 10, 4-((4-(4-methylpiperazin-1-yl)phenyl)thio)-1H-1,2,3-triazole-5-carboxylic acid] is lower in IC50: greater than 10000 nM for the first, 1000 to 10000 nM for the second. The second is the more potent here.

First: O=C(O)c1[nH]nnc1Sc1ccc(N2CCCCC2)cc1 [Compound 7, 4-((4-(piperidin-1-yl)phenyl)thio)-1H-1,2,3-triazole-5-carboxylic acid 2,2,2-trifluoroacetate]
Second: O=C(O)c1[nH]nnc1Sc1ccc(-c2ccc(Cl)cc2Cl)cc1 [Compound 22, 4-((2′,4′-dichloro-[1,1′-biphenyl]-4-yl)thio)-1H-1,2,3-triazole-5-carboxylic acid]
The IC50 of the first is higher: 100 to 1000 nM for the first, less than 100 nM for the second.

O=C(OC1CCC1)c1[nH]nnc1Sc1nc(-c2ccc(Cl)c(Cl)c2)cs1 [Compound 9, cyclobutyl 4-((4-(3,4-dichlorophenyl)thiazol-2-yl)thio)-1H-1,2,3-triazole-5-carboxylate] and O=C(OC1CC1)c1[nH]nnc1Sc1nc(-c2ccc(Cl)c(Cl)c2)cs1 [Compound 19, cyclopropyl 4-((4-(3,4-dichlorophenyl)thiazol-2-yl)thio)-1H-1,2,3-triazole-5-carboxylate] cannot be ordered by IC50: greater than 10000 nM for the first, greater than 10000 nM for the second.

Compared with CC(C)OC(=O)c1[nH]nnc1Sc1nc(-c2ccc(Cl)c(Cl)c2)cs1 [Compound 11, isopropyl 4-((4-(3,4-dichlorophenyl)thiazol-2-yl)thio)-1H-1,2,3-triazole-5-carboxylate], COc1ccc(-c2csc(Sc3nn[nH]c3C(=O)O)n2)cc1Cl [Compound 15, 4-((4-(3-chloro-4-methoxyphenyl)thiazol-2-yl)thio)-1H-1,2,3-triazole-5-carboxylic acid] is lower in IC50: greater than 10000 nM for the first, less than 100 nM for the second. The second is the more potent here.

First: O=C(O)c1[nH]nnc1Sc1ccc(-c2ccc(Br)cc2)cn1 [Compound 12, 4-((5-(4-bromophenyl)pyridin-2-yl)thio)-1H-1,2,3-triazole-5-carboxylic acid 2,2,2-trifluoroacetate]
Second: O=C(O)c1[nH]nnc1Sc1ccc(-c2ccc(Cl)c(Cl)c2)cc1 [Compound 21, 4-((3′,4′-dichloro-[1,1′-biphenyl]-4-yl)thio)-1H-1,2,3-triazole-5-carboxylic acid]
The IC50 of the first is higher: 100 to 1000 nM for the first, less than 100 nM for the second.

Compared with O=C(O)c1[nH]nnc1Sc1nnc(-c2ccc(Cl)c(Cl)c2)[nH]1 [Compound 13, 4-((5-(3,4-dichlorophenyl)-4H-1,2,4-triazol-3-yl)thio)-1H-1,2,3-triazole-5-carboxylic acid], Cn1c(Sc2nn[nH]c2C(=O)O)nnc1-c1ccc(Cl)c(Cl)c1 [Compound 28, 4-((5-(3,4-dichlorophenyl)-4-methyl-4H-1,2,4-triazol-3-yl)thio)-1H-1,2,3-triazole-5-carboxylic acid 2,2,2-trifluoroacetate] is higher in IC50: 100 to 1000 nM for the first, 1000 to 10000 nM for the second. The first is the more potent here.

O=C(O)c1[nH]nnc1Sc1ccc(-c2ccc(OC(F)(F)F)cc2)cc1 [Compound 16, 4-((4′-(trifluoromethoxy)-[1,1′-biphenyl]-4-yl)thio)-1H-1,2,3-triazole-5-carboxylic acid] and O=C(O)c1[nH]nnc1Sc1ccc(-c2ccc(Cl)c(OC(F)(F)F)c2)cc1 [Compound 30, 4-((4′-chloro-3′-(trifluoromethoxy)-[1,1′-biphenyl]-4-yl)thio)-1H-1,2,3-triazole-5-carboxylic acid] cannot be ordered by IC50: less than 100 nM for the first, less than 100 nM for the second.

O=C(O)c1[nH]nnc1Sc1nc(-c2ccc(OC3CC3)c(Cl)c2)cs1 [Compound 18, 4-((4-(3-chloro-4-cyclopropoxyphenyl)thiazol-2-yl)thio)-1H-1,2,3-triazole-5-carboxylic acid] and COc1ccc(-c2nc(Sc3nn[nH]c3C(=O)O)cs2)cc1Cl [Compound 25-2, 4-((2-(3-chloro-4-methoxyphenyl)thiazol-4-yl)thio)-1H-1,2,3-triazole-5-carboxylic acid] cannot be ordered by IC50: less than 100 nM for the first, less than 100 nM for the second.

O=C(O)c1[nH]nnc1Sc1cccc(-c2ccc(Cl)c(Cl)c2)n1 [Compound 20, 4-((6-(3,4-dichlorophenyl)pyridin-2-yl)thio)-1H-1,2,3-triazole-5-carboxylic acid] and O=C(O)c1[nH]nnc1Sc1csc(-c2ccc(Cl)cc2Cl)n1 [Compound 26, 4-((2-(2,4-dichlorophenyl)thiazol-4-yl)thio)-1H-1,2,3-triazole-5-carboxylic acid] cannot be ordered by IC50: less than 100 nM for the first, less than 100 nM for the second.

COc1cc(-c2nc(Sc3nn[nH]c3C(=O)O)cs2)ccc1Cl [Compound 23, 4-((2-(4-chloro-3-methoxyphenyl)thiazol-4-yl)thio)-1H-1,2,3-triazole-5-carboxylic acid] and CC(C)Oc1cc(-c2nc(Sc3nn[nH]c3C(=O)O)cs2)ccc1Cl [Compound 24, 4-((2-(4-chloro-3-isopropoxyphenyl)thiazol-4-yl)thio)-1H-1,2,3-triazole-5-carboxylic acid] cannot be ordered by IC50: less than 100 nM for the first, less than 100 nM for the second.

First: COc1ccc(Cn2nnc(C(=O)O)c2Sc2csc(-c3ccc(OC)c(Cl)c3)n2)cc1 [Compound 25-1, 5-((2-(3-chloro-4-methoxyphenyl)thiazol-4-yl)thio)-1-(4-methoxybenzyl)-1H-1,2,3-triazole-4-carboxylic acid]
Second: CC(C)Oc1ccc(-c2nc(Sc3nn[nH]c3C(=O)O)cs2)cc1Cl [Compound 27, 4-((2-(3-chloro-4-isopropoxyphenyl)thiazol-4-yl)thio)-1H-1,2,3-triazole-5-carboxylic acid]
The IC50 of the first is higher: greater than 10000 nM for the first, less than 100 nM for the second. The second is the more potent here.

Compared with CCOc1ccc2sc(Sc3nn[nH]c3C(=O)O)nc2c1 [Compound 29, 4-((5-ethoxybenzo[d]thiazol-2-yl)thio)-1H-1,2,3-triazole-5-carboxylic acid], O=C(O)c1[nH]nnc1Sc1ccc(-c2cccc(OC(F)(F)F)c2Cl)cc1 [Compound 31, 4-((2′-chloro-3′-(trifluoromethoxy)-[1,1′-biphenyl]-4-yl)thio)-1H-1,2,3-triazole-5-carboxylic acid] is lower in IC50: 100 to 1000 nM for the first, less than 100 nM for the second. The second is the more potent here.

Same assay, conditions: Table 4; read-out: Range (range of IC50 values calculated from the enzymatic assays)

CCCC(O)(CC)Cn1ccc(-c2ccc([C@H]3CC[C@H](Oc4nn[nH]c4C(=O)O)CC3)cc2)n1 (relative stereo) [Example 458, 4-(((trans)-4-(4-(1-(2-ethyl-2-hydroxypentyl)-1H-pyrazol-3-yl)phenyl)cyclohexyl)oxy)-1H-1,2,3-triazole-5-carboxylic acid] and CCCC(O)(CC)Cn1nccc1-c1ccc([C@H]2CC[C@H](Oc3nn[nH]c3C(=O)O)CC2)cc1 (relative stereo) [Example 470, 4-(((trans)-4-(4-(1-(2-ethyl-2-hydroxypentyl)-1H-pyrazol-5-yl)phenyl)cyclohexyl)oxy)-1H-1,2,3-triazole-5-carboxylic acid] cannot be ordered by IC50: less than 100 nM for the first, less than 100 nM for the second.

CCC(Cc1cc(-c2ccc([C@H]3CC[C@H](Oc4nn[nH]c4C(=O)O)CC3)cc2)[nH]n1)OC (relative stereo) [Example 475, 4-(((trans)-4-(4-(3-(2-methoxybutyl)-1H-pyrazol-5-yl)phenyl)cyclohexyl)oxy)-1H-1,2,3-triazole-5-carboxylic acid] and O=C(O)c1[nH]nnc1O[C@H]1CC[C@H](c2ccc(-c3ccnn3[C@H]3CCCC[C@@H]3O)cc2)CC1 (relative stereo) [Example 476, 4-(((trans)-4-(4-(1-((1S,2S)-2-hydroxycyclohexyl)-1H-pyrazol-5-yl)phenyl)cyclohexyl)oxy)-1H-1,2,3-triazole-5-carboxylic acid] cannot be ordered by IC50: less than 100 nM for the first, less than 100 nM for the second.

O=C(O)c1[nH]nnc1O[C@H]1CC[C@H](c2ccc(OC[C@H]3CCC[C@H](CO)C3)cc2)CC1 (relative stereo) [Example 483, 4-(((trans)-4-(4-(((trans)-3-(hydroxymethyl)cyclohexyl)methoxy)phenyl)cyclohexyl)oxy)-1H-1,2,3-triazole-5-carboxylic acid] showed an IC50 of less than 100 nM.
